The source of these data is paper PMC10714399, “Open Source Antibiotics: Simple Diarylimidazoles Are Potent against Methicillin-Resistant Staphylococcus aureus” (ACS Infectious Diseases, 2023).

Molecules are shown by their SMILES. In brackets after ≈: the same amount, converted by molar mass. Read-outs that look alike come from different tables or passages of the source.

For data set [1], the system named is Staphylococcus aureus NCTC 13373 (mecA-positive; methicillin-resistant). Nature of the data set: In vitro antibacterial activity, MIC (UCL School of Pharmacy assay), MRSA. The settings on record: Staphylococcus aureus. It counts as cell-based. The method, boiled down:
(§1)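 Each organism was taken from overnight tryptone soya agar, suspended in PBS at A600 0.1, diluted 1:100 in isosensitest broth and added to serially diluted compound (32 to 0.03 μg/mL).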

For data set [2], the system named is Enterococcus faecalis ATCC 51299 (vanA-positive; vancomycin-resistant). Nature of the data set: In vitro antibacterial activity, MIC (UCL), VRE. It counts as cell-based. The method, boiled down:
as §1

A short description of another data set: Aqueous solubility. Format: physicochemical. As to conditions: for solubility: thermodynamic from solid.
Another data set is described as follows: LogD7.4 (Chrom Log D). It counts as physicochemical. The text has this:
To guide our initial SAR exploration work, we obtained liver microsomal intrinsic clearance data for 5 of the 18 compounds assayed by CO-ADD (Supporting Information - CDCO Report and Supporting Information - Biology). We then acquired intrinsic clearance (CLint), plasma protein binding (PPB), and solubility data on further compounds throughout the SAR campaign (Supporting Information - Biology, Tables S3 and S4). […] The more polar compounds (lower LogD) had reduced PPB and were more metabolically stable.
Table S4. ADME and Pharmacokinetics: compounds only appearing in the Supplementary […]
MRSA Aqueous HLM CLint Rat Hep CLint
Cmpd MIC Solubility Human PPB (%) (µL/min/mg (µL/min/10x6 LogD7.4
(µg/mL) (µM) protein) cells)
(§2) ADME and toxicity for compounds were measured according to procedures outlined in the manuscript submitted in parallel to this one;2 other procedures were used for those compounds analysed by Monash University (in vitro ADME) or UCL (toxicity), both described in the main

Data set [3] in a line: Human plasma protein binding (PPB). Format: in vitro ADME. As to conditions: human, plasma.
Data set [4] in a line: Human liver microsome intrinsic clearance. Format: in vitro ADME. For orientation: Microsomes from liver hold many membrane-bound enzymes, among them those of drug oxidation.
A short description of data set [5]: Rat hepatocyte intrinsic clearance. Format: in vitro ADME.
Data set [6] concerns MRC-5SV2 (human lung fibroblast cell line). The data set is described as follows: Toxicity against MRC-5SV2. It counts as cell-based. As to conditions: MRC5 cells. As for the experimental part:
as §2

In data set [7] the test system is PMM (primary mouse macrophages). The data set is described as follows: Toxicity against PMM. As to conditions: PMM. Format: cell-based. As to the method:
as §2

Data set [8] concerns S. aureus ATCC 25923 (methicillin-susceptible). The data set is described as follows: In vitro antibacterial activity, MIC (UCL), MSSA. The settings on record: Staphylococcus aureus. It counts as cell-based, Staphylococcus aureus. The method, boiled down: as §1
Setting [9] is: NEU, read-out: Aqueous Solubility (NEU).
[10] abbreviates: chromatographic system (Chrom Log D), pH 7.4, NEU, read-out: LogD 7.4 (NEU).
Where [11] appears, read: human plasma, NEU, read-out: Human PPB (NEU) (converted).
Where [12] appears, read: human liver microsomes, NEU, read-out: HLM CLint (NEU).
Setting [13] is: UCL assay, read-out: MRSA MIC (ug/mL) (UCL).
Where [14] appears, read: UCL assay, read-out: MSSA MIC (ug/mL) (UCL).
Where [15] appears, read: NEU, read-out: Aqueous Solubility (uM) (NEU).
Where [16] appears, read: human plasma, NEU, read-out: Human PPB (%) (NEU) (converted).
Setting [17] is: rat hepatocytes, NEU, read-out: Rat Hep CLint (uL/min/10x6 cells) (NEU).
Setting [18] is: human liver microsomes, NEU, read-out: HLM CLint (uL/min/mg protein) (NEU).
Where [19] appears, read: read-out: Human PPB (converted).
The mark [20] stands for this setting: human, liver microsomes, read-out: HLM CLint.
Setting [21] is: rat, hepatocytes, Figure 4, read-out: Rat Hep CLint.

A word on the solubility: it is the concentration that dissolves in the medium under given conditions. `COc1ccn2cc(-c3ccccn3)nc2c1` [OSA_000856]: the MIC in data set [1] (UCL, read-out: MRSA MIC (UCL)) was above 32 µg/mL; in data set [2] (read-out: VRE MIC (UCL)), above 32 µg/mL. Besides, in “Aqueous solubility” (setting [9]), the solubility stood at 723 µM (≈ 163 µg/mL). Moreover, the chromatographic logD in the data set “LogD7.4 (Chrom Log D)” (setting [10]) came to 2.2. Moreover, the fraction unbound in data set [3] (setting [11]) is 0.21. In addition, in [4] (setting [12]), the microsomal CLint was above 300 µL/min/mg. For the same compound, the “Rat Hep CLint (NEU)” value in data set [5] (rat hepatocytes, NEU) is 52.9 uL/min/10x6 cells. Further, the “MRC5 TC50” value in data set [6] is 51.6 µM. In addition, the “PMM TC50” value in data set [7] was 64 µM.

As for `Cc1ccc(-c2c(-c3ccccn3)nc3cc(Cl)ccn23)cc1` [OSA_000978], the MIC in data set [1] (UCL, read-out: MRSA MIC (UCL)) was found to be 4 µg/mL (≈ 12.5 µM); in data set [2] (read-out: VRE MIC (UCL)) it was 8 µg/mL (≈ 25 µM). Also, in the data set “Aqueous solubility” (NEU), the “Aqueous Solubility (NEU)” value turned out to be 5 µM. Also, the chromatographic logD in the data set “LogD7.4 (Chrom Log D)” (setting [10]) turned out to be 3.1. Besides, in data set [3] (setting [11]), the fraction unbound was 0.0055. Also, the “HLM CLint (NEU)” value in data set [4] (human liver microsomes, NEU) was 65.6 uL/min/mg protein. Also, the “Rat Hep CLint (NEU)” value in data set [5] (rat hepatocytes, NEU) is listed as 104 uL/min/10x6 cells.

As for `CCN(CC)c1ccc(-c2c(-c3ccccn3)nc3ccccn23)cc1` [OSA_001011], the MIC in [1] (UCL, read-out: MRSA MIC (UCL)) was determined as 4 µg/mL (≈ 11.7 µM); in [8] (read-out: MSSA MIC (UCL)) it was 4 µg/mL (≈ 11.7 µM). For the same compound, the solubility in “Aqueous solubility” (setting [9]) turned out to be 38 µM (≈ 13 µg/mL). Moreover, the chromatographic logD in the data set “LogD7.4 (Chrom Log D)” (setting [10]) turned out to be 4.3. Besides, in data set [3] (setting [11]), the fraction unbound was 0.004. Besides, the microsomal CLint in data set [4] (setting [12]) is 159 µL/min/mg. In [5] (rat hepatocytes, NEU, read-out: Rat Hep CLint (NEU)), the hepatocyte CLint came to 192 µL/min/1e6 cells.

On to `Cc1ccc(-c2c(-c3ccccn3)nc3ccccn23)cc1` [OSA_001018], for which the MIC was 4 µg/mL (≈ 14 µM) in data set [1] (UCL, read-out: MRSA MIC (UCL)) and 4 µg/mL (≈ 14 µM) in data set [8] (read-out: MSSA MIC (UCL)). Moreover, in “Aqueous solubility” (NEU), the “Aqueous Solubility (NEU)” value was found to be 43 µM. Further, the chromatographic logD in the data set “LogD7.4 (Chrom Log D)” (setting [10]) worked out at 3.3. In data set [3] (setting [11]), the fraction unbound was 0.011. In addition, the “HLM CLint (NEU)” value in data set [4] (human liver microsomes, NEU) was determined as 122 uL/min/mg protein. Besides, the “Rat Hep CLint (NEU)” value in data set [5] (rat hepatocytes, NEU) came to 57.7 uL/min/10x6 cells.

Turning to `CS(=O)(=O)c1ccc2nc(-c3ccccn3)c(Nc3ccc(F)cc3)n2c1` [OSA_001020], the MIC in [1] (setting [13]) and in data set [8] (setting [14]) was above 32 µg/mL in each case. In the data set “Aqueous solubility” (setting [15]), the solubility was found to be 5 µM (≈ 1.91 µg/mL). In addition, the chromatographic logD in “LogD7.4 (Chrom Log D)” (setting [10]) came to 2.4. Moreover, the fraction unbound in data set [3] (setting [16]) was 0.11. For the same compound, the “HLM CLint (uL/min/mg protein) (NEU)” value in [4] (human liver microsomes, NEU) is listed as 92 uL/min/mg protein. Also, the hepatocyte CLint in [5] (setting [17]) was above 300 µL/min/1e6 cells. The “MRC5 TC50” value in [6] is 64 µM. In addition, the “PMM TC50” value in data set [7] is 32 µM.

In the case of `CC(C)CN(c1ccc(F)cc1)c1c(-c2ccccn2)nc2cc(F)ccn12` [OSA_001023], the figures for the MIC in data set [1] (setting [13]) and in data set [8] (setting [14]) were 8 µg/mL (≈ 21.1 µM) and 4 µg/mL (≈ 10.6 µM), respectively. In the data set “Aqueous solubility” (setting [15]), the solubility came out at 11 µM (≈ 4.16 µg/mL). Further, the chromatographic logD in “LogD7.4 (Chrom Log D)” (setting [10]) turned out to be 4.3. The fraction unbound in [3] (setting [16]) was 0.0023. In addition, the microsomal CLint in data set [4] (setting [18]) is 13.6 µL/min/mg. Also, in [5] (setting [17]), the hepatocyte CLint turned out to be 110 µL/min/1e6 cells.

Regarding `CC(C)CN(c1ccc(F)cc1)c1c(-c2ccccn2)nc2ccc(F)cn12` [OSA_001024], the MIC in data set [1] (setting [13]) and in [8] (setting [14]) was 8 µg/mL (≈ 21.1 µM) each time. Besides, in the data set “Aqueous solubility” (setting [15]), the solubility came to 17 µM (≈ 6.43 µg/mL). The chromatographic logD in the data set “LogD7.4 (Chrom Log D)” (setting [10]) is above 4.2. Besides, the fraction unbound in [3] (setting [16]) is 0.0014. Further, the microsomal CLint in data set [4] (setting [18]) stood at 51.2 µL/min/mg. In [5] (setting [17]), the hepatocyte CLint is 117 µL/min/1e6 cells.

Regarding `Cc1ccc(-c2c(-c3ccccn3)nc3cc(Cl)ccn23)cc1` [compound 978], the MIC in data set [1] (16 h, read-out: MRSA MIC) turned out to be 4 µg/mL (≈ 12.5 µM); in data set [1] (read-out: MRSA MIC), 4 µg/mL (≈ 12.5 µM); in [2] (read-out: VRE MIC) it was 8 µg/mL (≈ 25 µM). The solubility in “Aqueous solubility” (read-out: Aqueous Solubility) was 5 µM (≈ 1.6 µg/mL). Moreover, in the data set “LogD7.4 (Chrom Log D)” (pH 7.4, read-out: LogD7.4), the chromatographic logD is 3.1. In addition, the fraction unbound in data set [3] (setting [19]) is 0.01. Besides, the microsomal CLint in data set [4] (setting [20]) amounted to 65.6 µL/min/mg. For the same compound, the hepatocyte CLint in [5] (setting [21]) worked out at 104 µL/min/1e6 cells.

Regarding `Cc1ccc(-c2c(-c3ccccn3)nc3ccccn23)cc1` [compound 1018], the MIC in data set [1] (16 h, read-out: MRSA MIC) worked out at 4 µg/mL (≈ 14 µM); in data set [1] (read-out: MRSA MIC), 4 µg/mL (≈ 14 µM); in [8] (read-out: MSSA MIC), 4 µg/mL (≈ 14 µM). In addition, the solubility in “Aqueous solubility” (read-out: Aqueous Solubility) turned out to be 43 µM (≈ 12.3 µg/mL). Besides, the chromatographic logD in the data set “LogD7.4 (Chrom Log D)” (pH 7.4, read-out: LogD7.4) turned out to be 3.3. The fraction unbound in [3] (setting [19]) is 0.01. Further, the microsomal CLint in data set [4] (setting [20]) is 122 µL/min/mg. For the same compound, the hepatocyte CLint in data set [5] (setting [21]) was found to be 57.7 µL/min/1e6 cells.
